Source: publication PMC3961306, “Comparison of the Cancer Gene Targeting and Biochemical Selectivities of All Targeted Kinase Inhibitors Approved for Clinical Use” (PLoS ONE, 2014)
Where two headings read alike, the source gives them in different places.

Columns and labels:
[1] = target: panel of more than 300 wild-type and mutant kinases (313 kinase panel) (Homo sapiens, UniProt P00533, L858R); assay: Kinase profiling in a biochemical assay panel (mobility shift assays and ELISA), %-inhibition at 1 μM; selectivity entropy
[2] = target: T1, panel of more than 300 wild-type and mutant kinases (313 kinase panel) (Homo sapiens, UniProt P30530); assay: as above; conditions: kinase AXL; 1 μM compound
T1 sequence (P30530 26-894): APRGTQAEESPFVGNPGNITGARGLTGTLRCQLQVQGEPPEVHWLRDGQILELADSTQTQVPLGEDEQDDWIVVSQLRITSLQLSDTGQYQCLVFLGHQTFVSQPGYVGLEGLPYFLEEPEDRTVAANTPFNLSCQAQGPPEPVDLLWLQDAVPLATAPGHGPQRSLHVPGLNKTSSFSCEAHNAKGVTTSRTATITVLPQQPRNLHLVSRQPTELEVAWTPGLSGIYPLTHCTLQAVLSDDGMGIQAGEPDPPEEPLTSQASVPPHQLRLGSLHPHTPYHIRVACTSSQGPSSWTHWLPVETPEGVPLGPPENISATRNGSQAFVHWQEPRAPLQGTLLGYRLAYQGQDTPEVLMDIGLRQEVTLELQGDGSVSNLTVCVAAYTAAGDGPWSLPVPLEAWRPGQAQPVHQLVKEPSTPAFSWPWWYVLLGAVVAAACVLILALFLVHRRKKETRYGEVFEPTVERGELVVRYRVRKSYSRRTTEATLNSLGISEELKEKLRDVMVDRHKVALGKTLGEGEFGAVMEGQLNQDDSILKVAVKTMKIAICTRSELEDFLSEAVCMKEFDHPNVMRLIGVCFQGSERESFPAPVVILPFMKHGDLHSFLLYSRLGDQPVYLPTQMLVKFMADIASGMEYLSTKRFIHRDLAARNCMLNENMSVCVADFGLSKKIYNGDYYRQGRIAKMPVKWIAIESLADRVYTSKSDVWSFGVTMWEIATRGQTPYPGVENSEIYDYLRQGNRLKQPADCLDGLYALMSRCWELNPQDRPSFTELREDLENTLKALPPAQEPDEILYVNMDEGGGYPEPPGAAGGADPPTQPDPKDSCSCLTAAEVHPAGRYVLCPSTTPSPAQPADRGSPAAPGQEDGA

[3] = target: T2, panel of more than 300 wild-type and mutant kinases (313 kinase panel) (Homo sapiens, UniProt P51955); assay: as above; conditions: kinase NEK2; 1 μM
T2 sequence (P51955 1-445): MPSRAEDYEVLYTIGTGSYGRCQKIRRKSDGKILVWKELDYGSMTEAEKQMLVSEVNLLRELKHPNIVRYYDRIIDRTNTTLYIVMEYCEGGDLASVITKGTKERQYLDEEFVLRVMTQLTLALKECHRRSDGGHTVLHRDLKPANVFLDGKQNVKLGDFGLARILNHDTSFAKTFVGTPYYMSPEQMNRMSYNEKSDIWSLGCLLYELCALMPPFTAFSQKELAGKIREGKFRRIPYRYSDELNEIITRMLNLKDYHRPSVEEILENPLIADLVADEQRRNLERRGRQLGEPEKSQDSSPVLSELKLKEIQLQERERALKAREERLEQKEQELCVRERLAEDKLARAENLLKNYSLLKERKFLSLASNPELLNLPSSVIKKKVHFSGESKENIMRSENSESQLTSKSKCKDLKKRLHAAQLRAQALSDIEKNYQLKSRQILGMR

[4] = target: panel of more than 300 wild-type and mutant kinases (313 kinase panel) (Homo sapiens, UniProt Q9NQU5); assay: as above
[5] = target: panel of more than 300 wild-type and mutant kinases (313 kinase panel) (Homo sapiens, UniProt P22694); assay: as above; conditions: 1 µM
[6] = tested on: forty-four human cancer cell lines; assay: Cell proliferation assay (ATPlite, 72 hours) in the 44 cell line Oncolines panel; format: cell-based; conditions: Homo sapiens
[7] = target: panel of more than 300 wild-type and mutant kinases (313 kinase panel) (Homo sapiens, UniProt P11362, V561M); assay: Kinase profiling in a biochemical assay panel (mobility shift assays and ELISA), %-inhibition at 1 μM; selectivity entropy; conditions: kinase FGFR1(V561M); compound at 1 μM
[8] = 4-4 cell, read-out: cell panel IC50, J82
[9] = 4-4 cell, read-out: cell panel IC50, PA-1
[10] = 4-4 cell, read-out: cell panel IC50, SJCRH30
[11] = 4-4 cell, read-out: cell panel IC50, SR
[12] = 769-P, read-out: cell panel IC50, 769-P
[13] = 786-0, read-out: cell panel IC50, 786-0
[14] = A 172, read-out: cell panel IC50, A-172
[15] = A204, read-out: cell panel IC50, A-204
[16] = A498, read-out: cell panel IC50, A-498
[17] = A549, read-out: cell panel IC50, A-549
[18] = A-375, read-out: cell panel IC50, A375
[19] = A-427, read-out: cell panel IC50, A-427
[20] = AN3-CA, read-out: cell panel IC50, AN3 CA
[21] = AU565, read-out: cell panel IC50, AU-565
[22] = BT-20, read-out: cell panel IC50, BT-20
[23] = BT-549, read-out: cell panel IC50, BT-549
[24] = BXPC-3, read-out: cell panel IC50, BxPC-3
[25] = C-33-A, read-out: cell panel IC50, C-33 A
[26] = CAL-27, read-out: cell panel IC50, CAL 27
[27] = CCRF-CEM, read-out: cell panel IC50, CCRF-CEM
[28] = DLD-1, read-out: cell panel IC50, DLD-1
[29] = FaDu, read-out: cell panel IC50, FaDu
[30] = HCT-15, read-out: cell panel IC50, HCT-15
[31] = HCT-116, read-out: cell panel IC50, HCT-116
[32] = Hs-578T, read-out: cell panel IC50, Hs 578T
[33] = Jurkat E6.1, read-out: cell panel IC50, Jurkat E6.1
[34] = K562, read-out: cell panel IC50, K-562
[35] = LS174T, read-out: cell panel IC50, LS 174T
[36] = LoVo, read-out: cell panel IC50, LoVo
[37] = MG-63, read-out: cell panel IC50, MG-63
[38] = MOLT-4, read-out: cell panel IC50, MOLT-4
[39] = MeWo, read-out: cell panel IC50, MeWo
[40] = NCI-H82, read-out: cell panel IC50, NCI-H82
[41] = NCI-H460, read-out: cell panel IC50, NCI-H460
[42] = OVCAR-3, read-out: cell panel IC50, OVCAR-3
[43] = RPMI-7951, read-out: cell panel IC50, RPMI-7951
[44] = SHP77, read-out: cell panel IC50, SHP-77
[45] = SK-N-AS, read-out: cell panel IC50, SK-N-AS
[46] = SW48, read-out: cell panel IC50, SW48
[47] = SW480, read-out: cell panel IC50, SW480
[48] = SW-620, read-out: cell panel IC50, SW620
[49] = U2OS, read-out: cell panel IC50, U-2 OS
[50] = U-87 MG, 72 h, read-out: IC50 in cell proliferation assay (table S5 cellpanel data)

**Q.** Which results are given for `Cc1cn(-c2cc(NC(=O)c3ccc(C)c(Nc4nccc(-c5cccnc5)n4)c3)cc(C(F)(F)F)c2)cn1` [nilotinib]?
**A.** %-inhibition of EGFR(L858R) ([1]; kinase EGFR(L858R), compound at 1 μM): 30%; %-inhibition, AXL [2]: -4.75%; %-inhibition of NEK2 [3]: -19%; %-inhibition of PAK6 ([4]; 1 µM): -102%; %-inhibition of PKACβ [5]: 28%; IC50 [6, 8]: 6330 nM; IC50 [6, 9]: 13800 nM; IC50 [6, 10]: > 31600 nM; IC50 [6, 11]: 4310 nM; IC50 [6, 12]: > 31600 nM; IC50 [6, 13]: 1110 nM; IC50 [6, 14]: 9780 nM; IC50 [6, 15]: 584 nM; IC50 [6, 16]: 5040 nM; IC50 [6, 17]: 7290 nM; IC50 [6, 18]: 9580 nM; IC50 [6, 19]: 6730 nM; IC50 ([6]; ACHN, read-out: cell panel IC50, ACHN): 12300 nM; IC50 [6, 20]: 26100 nM; IC50 [6, 21]: 4630 nM; IC50 [6, 22]: > 31600 nM; IC50 [6, 23]: 3330 nM; IC50 [6, 24]: 10100 nM; IC50 [6, 25]: > 31600 nM; IC50 [6, 26]: 9840 nM; IC50 [6, 27]: 6740 nM; IC50 [6, 28]: 7300 nM; IC50 [6, 29]: > 31600 nM; IC50 [6, 30]: 6180 nM; IC50 [6, 31]: 5750 nM; IC50 [6, 32]: 7430 nM; IC50 [6, 33]: 11800 nM; IC50 [6, 34]: 26 nM; IC50 [6, 35]: 6110 nM; IC50 [6, 36]: 7460 nM; IC50 [6, 37]: 8780 nM; IC50 [6, 38]: 4360 nM; IC50 [6, 39]: > 31600 nM; IC50 [6, 40]: 31200 nM; IC50 [6, 41]: 6490 nM; IC50 [6, 42]: > 31600 nM; IC50 [6, 43]: 7780 nM; IC50 [6, 44]: > 31600 nM; IC50 [6, 45]: 24000 nM; IC50 [6, 46]: > 31600 nM; IC50 [6, 47]: 18000 nM; IC50 [6, 48]: 5300 nM; IC50 [6, 49]: 5380 nM; IC50 [6, 50]: > 31600 nM

**Q.** What does the source list for `Cc1ccc(C(=O)Nc2ccc(CN3CCN(C)CC3)c(C(F)(F)F)c2)cc1C#Cc1cnc2cccnn12` [ponatinib]?
**A.** %-inhibition of EGFR(L858R) ([1]; 1 µM): 95%; %-inhibition, AXL [2]: 70%; %-inhibition of PAK6 ([4]; kinase PAK6, 1 μM): -3%; %-inhibition of FGFR1(V561M) [7]: 98%; IC50 [6, 8]: 1530 nM; IC50 [6, 9]: 814 nM; IC50 [6, 10]: 1110 nM; IC50 [6, 11]: 836 nM; IC50 [6, 12]: 1800 nM; IC50 [6, 13]: 1870 nM; IC50 [6, 14]: 626 nM; IC50 [6, 15]: 92 nM; IC50 [6, 16]: 1320 nM; IC50 [6, 17]: 1150 nM; IC50 [6, 18]: 1140 nM; IC50 [6, 19]: 352 nM; IC50 [6, 20]: 124 nM; IC50 [6, 21]: 1420 nM; IC50 [6, 22]: 5120 nM; IC50 [6, 23]: 1850 nM; IC50 [6, 24]: 817 nM; IC50 [6, 25]: 1000 nM; IC50 [6, 26]: 1720 nM; IC50 [6, 27]: 2250 nM; IC50 [6, 28]: 1130 nM; IC50 [6, 29]: 1110 nM; IC50 [6, 30]: 913 nM; IC50 [6, 31]: 1210 nM; IC50 [6, 32]: 1180 nM; IC50 [6, 33]: 403 nM; IC50 [6, 34]: 6.5 nM; IC50 [6, 35]: 2050 nM; IC50 [6, 36]: 380 nM; IC50 [6, 37]: 2480 nM; IC50 [6, 38]: 977 nM; IC50 [6, 39]: 2220 nM; IC50 [6, 40]: 1100 nM; IC50 [6, 41]: 1430 nM; IC50 [6, 42]: 2950 nM; IC50 [6, 43]: 1150 nM; IC50 [6, 44]: 6490 nM; IC50 [6, 45]: 1080 nM; IC50 [6, 46]: 1550 nM; IC50 [6, 47]: 2170 nM; IC50 [6, 48]: 799 nM; IC50 [6, 49]: 1120 nM; IC50 [6, 50]: 3100 nM
